Experimental data: ChEMBL document CHEMBL1641581, “Ring A-seco triterpenoids with antibacterial activity from Dysoxylum hainanense” (2011)
≈ marks a conversion by molar mass, not a printed value.

Experiments:
Type in all cases: functional
[1] = system: Nannizzia gypsea; assay: Antifungal activity against Microsporum gypseum ATCC 14683 assessed as inhibition of visible growth
[2] = system: Pseudomonas aeruginosa; assay: Antibacterial activity against Pseudomonas aeruginosa ATCC 14502 assessed as inhibition of visible growth
[3] = system: Staphylococcus epidermidis; assay: Antibacterial activity against Staphylococcus epidermidis ATCC 12228 assessed as inhibition of visible growth
[4] = system: Trichophyton rubrum; assay: Antifungal activity against Trichophyton rubrum ATCC 10218 assessed as inhibition of visible growth
[5] = system: Candida albicans; assay: Antifungal activity against Candida albicans ATCC 1600 assessed as inhibition of visible growth
[6] = system: Escherichia coli; assay: Antibacterial activity against Escherichia coli ATCC 25922 assessed as inhibition of visible growth
[7] = system: Saccharomyces; assay: Antifungal activity against Saccharomyces sake ATCC 26421 assessed as inhibition of visible growth
[8] = system: Staphylococcus aureus; assay: Antibacterial activity against Staphylococcus aureus ATCC 25923 assessed as inhibition of visible growth
[9] = system: Micrococcus luteus; assay: Antibacterial activity against Micrococcus luteus ATCC 9341 assessed as inhibition of visible growth
[10] = system: Bacillus subtilis; assay: Antibacterial activity against Bacillus subtilis ATCC 6633 assessed as inhibition of visible growth
[11] = system: Shigella flexneri; assay: Antibacterial activity against Shigella flexneri ATCC 12022 assessed as inhibition of visible growth

An MIC [1] greater than 50 µg/mL, an MIC [2] greater than 50 µg/mL and an MIC [3] of 12.5 µg/mL (≈ 26.6 µM) were found for `C=C(C)[C@@H]1CC[C@]2(C)[C@H](CC=C3[C@@H]4C[C@@](C)(C(=O)O)CC[C@]4(C)CC[C@]32C)[C@@]1(C)CCC(=O)O` [KOETJAPIC ACID] in this work. For the same molecule, the MIC [4] was greater than 50 µg/mL, the MIC [5] was greater than 50 µg/mL and the MIC [6] was greater than 50 µg/mL. It also gave an MIC [7] greater than 50 µg/mL, an MIC [8] greater than 50 µg/mL and an MIC [9] greater than 50 µg/mL. For the same molecule, the MIC [10] was 6.25 µg/mL (≈ 13.3 µM) and the MIC [11] was greater than 50 µg/mL.
An MIC [1] greater than 50 µg/mL, an MIC [2] greater than 50 µg/mL and an MIC [3] of 3.12 µg/mL (≈ 6.44 µM) were found for `C=C(C)[C@@H]1CC[C@]2(C)[C@H](CC=C3[C@@H]4C[C@@](C)(C(=O)O)CC[C@]4(C)CC[C@]32C)[C@@]1(C)CCC(=O)OC` [DYSOXYHAINIC ACID G] in this work. For the same molecule, the MIC [4] was greater than 50 µg/mL, the MIC [5] was greater than 50 µg/mL and the MIC [6] was greater than 50 µg/mL. For the same molecule, the MIC [7] was greater than 50 µg/mL, the MIC [8] was greater than 50 µg/mL and the MIC [9] was 3.12 µg/mL (≈ 6.44 µM). It also gave an MIC [10] of 3.12 µg/mL (≈ 6.44 µM) and an MIC [11] greater than 50 µg/mL.
An MIC [1] greater than 50 µg/mL, an MIC [2] greater than 50 µg/mL and an MIC [3] greater than 50 µg/mL were found for `CC1(C)CC[C@]2(C)CC[C@]3(C)C(=CC=C4[C@@](C)(CCC(=O)O)[C@H](C(C)(C)O)CC[C@]43C)[C@@H]2C1` [DYSOXYHAINIC ACID J] in this work. It also gave an MIC [4] greater than 50 µg/mL, an MIC [5] greater than 50 µg/mL and an MIC [6] greater than 50 µg/mL. For the same molecule, the MIC [7] was greater than 50 µg/mL, the MIC [8] was greater than 50 µg/mL and the MIC [9] was greater than 50 µg/mL. It also gave an MIC [10] greater than 50 µg/mL and an MIC [11] greater than 50 µg/mL.
An MIC [1] of 12.5 µg/mL (≈ 28.9 µM), an MIC [4] of 25 µg/mL (≈ 57.8 µM) and an MIC [5] of 6.25 µg/mL (≈ 14.5 µM) were found for `COC(=O)C1=CC[C@@]23CC[C@@H]([C@@](C)(/C=C/C=C(\C)C(=O)O)OC2=O)[C@@]3(OC(C)=O)CC1` [PSEUDOLARIC ACID B] in this work. For the same molecule, the MIC [7] was 12.5 µg/mL (≈ 28.9 µM).
An MIC [1] greater than 50 µg/mL, an MIC [2] greater than 50 µg/mL and an MIC [3] greater than 50 µg/mL were found for `CC(C)(C(=O)O)[C@@H]1CC[C@]2(C)[C@H](CC=C3[C@@H]4C[C@@](C)(C(=O)O)CC[C@]4(C)CC[C@]32C)[C@@]1(C)C(=O)O` [DYSOXYHAINIC ACID F] in this work. It also gave an MIC [4] greater than 50 µg/mL, an MIC [5] greater than 50 µg/mL and an MIC [6] greater than 50 µg/mL. It also gave an MIC [7] greater than 50 µg/mL, an MIC [8] greater than 50 µg/mL and an MIC [9] greater than 50 µg/mL. The MIC [10] was greater than 50 µg/mL and the MIC [11] was greater than 50 µg/mL.
An MIC [1] greater than 50 µg/mL, an MIC [2] greater than 50 µg/mL and an MIC [3] of 12.5 µg/mL (≈ 27.2 µM) were found for `CC1(C)CC[C@]2(C)CC[C@]3(C)C(=CC[C@@H]4[C@@](C)(CCC(=O)O)[C@H](C(C)(C)O)CC[C@]43C)[C@@H]2C1` [DYSOXYHAINIC ACID I] in this work. It also gave an MIC [4] greater than 50 µg/mL, an MIC [5] greater than 50 µg/mL and an MIC [6] greater than 50 µg/mL. The MIC [7] was greater than 50 µg/mL, the MIC [8] was greater than 50 µg/mL and the MIC [9] was greater than 50 µg/mL. The MIC [10] was 1.56 µg/mL (≈ 3.4 µM) and the MIC [11] was greater than 50 µg/mL.
An MIC [1] greater than 50 µg/mL, an MIC [2] greater than 50 µg/mL and an MIC [3] greater than 50 µg/mL were found for `C=C(C)[C@@H]1CC[C@]2(C)[C@H](CC[C@@H]3[C@H]4[C@H](C(C)(C)O)CC[C@]4(C)CC[C@]32C)[C@@]1(C)CCC(=O)O` [DYSOXYHAINIC ACID H] in this work. For the same molecule, the MIC [4] was greater than 50 µg/mL, the MIC [5] was greater than 50 µg/mL and the MIC [6] was greater than 50 µg/mL. The MIC [7] was greater than 50 µg/mL, the MIC [8] was greater than 50 µg/mL and the MIC [9] was 3.12 µg/mL (≈ 6.8 µM). For the same molecule, the MIC [10] was 3.12 µg/mL (≈ 6.8 µM) and the MIC [11] was greater than 50 µg/mL.
An MIC [2] greater than 50 µg/mL, an MIC [3] of 12.5 µg/mL (≈ 46.9 µM) and an MIC [6] greater than 50 µg/mL were found for `C=CCc1ccc(O)c(-c2cc(CC=C)ccc2O)c1` [MAGNOLOL] in this work. The MIC [8] was 25 µg/mL (≈ 93.9 µM), the MIC [9] was 12.5 µg/mL (≈ 46.9 µM) and the MIC [10] was 12.5 µg/mL (≈ 46.9 µM). The MIC [11] was greater than 50 µg/mL.
